Experimental data taken from the CheMixHub viscosity set.
± gives the uncertainty stated by the source.

Assay: xn = mol fraction of the nth substance listed

c1ccccc1 + CCCO
Details | viscosity [mPa·s]
293.15 K, 101 kPa, x1 = 0.7 | 0.7259 ± 0.011
295.15 K, 101 kPa, x2 = 0.0129 | 0.6231 ± 0.017
295.15 K, 101 kPa, x2 = 0.01297 | 0.6234 ± 0.017
295.15 K, 101 kPa, x2 = 0.02571 | 0.6203 ± 0.016
295.15 K, 101 kPa, x2 = 0.0258 | 0.6203 ± 0.016
295.15 K, 101 kPa, x2 = 0.02588 | 0.6203 ± 0.016
295.15 K, 101 kPa, x2 = 0.03494 | 0.6193 ± 0.016
295.15 K, 101 kPa, x2 = 0.04358 | 0.6193 ± 0.016
295.15 K, 101 kPa, x2 = 0.06103 | 0.6204 ± 0.016
295.15 K, 101 kPa, x2 = 0.1016 | 0.6265 ± 0.017
295.15 K, 101 kPa, x2 = 0.2458 | 0.6758 ± 0.018
295.15 K, 101 kPa, x2 = 0.5664 | 0.9778 ± 0.026
295.15 K, 101 kPa, x2 = 0.9204 | 1.808 ± 0.048
298.15 K, 100 kPa, x2 = 0.059 | 0.6108 ± 0.073
298.15 K, 100 kPa, x2 = 0.1169 | 0.6226 ± 0.075
298.15 K, 100 kPa, x2 = 0.2295 | 0.6135 ± 0.074
298.15 K, 100 kPa, x2 = 0.2843 | 0.6582 ± 0.079
298.15 K, 100 kPa, x2 = 0.3733 | 0.7116 ± 0.086
298.15 K, 100 kPa, x2 = 0.5437 | 0.8989 ± 0.11
298.15 K, 100 kPa, x2 = 0.6252 | 1.017 ± 0.12
298.15 K, 100 kPa, x2 = 0.7044 | 1.166 ± 0.14
298.15 K, 100 kPa, x2 = 0.7814 | 1.289 ± 0.15
298.15 K, 100 kPa, x2 = 0.8563 | 1.469 ± 0.18
298.15 K, 100 kPa, x2 = 0.9291 | 1.719 ± 0.21
298.15 K, 101 kPa, x1 = 0.062 | 1.707 ± 0.018
298.15 K, 101 kPa, x1 = 0.1398 | 1.471 ± 0.015
298.15 K, 101 kPa, x1 = 0.295 | 1.132 ± 0.012
298.15 K, 101 kPa, x1 = 0.388 | 0.988 ± 0.01
298.15 K, 101 kPa, x1 = 0.4349 | 0.565
298.15 K, 101 kPa, x1 = 0.4661 | 0.887 ± 0.009
298.15 K, 101 kPa, x1 = 0.5335 | 0.394
298.15 K, 101 kPa, x1 = 0.5337 | 0.805 ± 0.008
298.15 K, 101 kPa, x1 = 0.6049 | 0.741 ± 0.008
298.15 K, 101 kPa, x1 = 0.6086 | 0.4578
298.15 K, 101 kPa, x1 = 0.7128 | 0.657 ± 0.007
298.15 K, 101 kPa, x1 = 0.806 | 0.626 ± 0.007
298.15 K, 101 kPa, x1 = 0.89 | 0.604 ± 0.006
298.15 K, 101.3 kPa, x1 = 0.1571 | 1.435 ± 0.038
298.15 K, 101.3 kPa, x1 = 0.3573 | 1.018 ± 0.027
298.15 K, 101.3 kPa, x1 = 0.5287 | 0.797 ± 0.021
298.15 K, 101.3 kPa, x1 = 0.7516 | 0.637 ± 0.017
298.15 K, 101.33 kPa, x1 = 0.1571 | 1.435 ± 0.011
298.15 K, 101.33 kPa, x1 = 0.2757 | 1.167 ± 0.029
298.15 K, 101.33 kPa, x1 = 0.3573 | 1.018 ± 0.0081
298.15 K, 101.33 kPa, x1 = 0.5287 | 0.797 ± 0.0064
298.15 K, 101.33 kPa, x1 = 0.6446 | 0.703 ± 0.018
298.15 K, 101.33 kPa, x1 = 0.7516 | 0.637 ± 0.0051
298.15 K, 101.33 kPa, x1 = 0.8737 | 0.599 ± 0.015
298.15 K, 101.33 kPa, x1 = 0.9369 | 0.592 ± 0.015
298.15 K, 101.33 kPa, x2 = 0.2 | 0.622 ± 0.012
303.15 K, 101 kPa, x1 = 0.062 | 1.522 ± 0.015
303.15 K, 101 kPa, x1 = 0.1398 | 1.319 ± 0.013
303.15 K, 101 kPa, x1 = 0.295 | 1.021 ± 0.01
303.15 K, 101 kPa, x1 = 0.388 | 0.892 ± 0.009
303.15 K, 101 kPa, x1 = 0.4661 | 0.808 ± 0.008
303.15 K, 101 kPa, x1 = 0.5337 | 0.737 ± 0.008
303.15 K, 101 kPa, x1 = 0.6049 | 0.68 ± 0.007
303.15 K, 101 kPa, x1 = 0.7128 | 0.609 ± 0.006
303.15 K, 101 kPa, x1 = 0.806 | 0.58 ± 0.006
303.15 K, 101 kPa, x1 = 0.89 | 0.566 ± 0.006
308.15 K, 100 kPa, x2 = 0.059 | 0.5422 ± 0.065
308.15 K, 100 kPa, x2 = 0.1169 | 0.5507 ± 0.066
308.15 K, 100 kPa, x2 = 0.2295 | 0.5825 ± 0.07
308.15 K, 100 kPa, x2 = 0.2843 | 0.5616 ± 0.068
308.15 K, 100 kPa, x2 = 0.3733 | 0.6014 ± 0.072
308.15 K, 100 kPa, x2 = 0.5437 | 0.7483 ± 0.09
308.15 K, 100 kPa, x2 = 0.6252 | 0.8508 ± 0.1
308.15 K, 100 kPa, x2 = 0.7044 | 0.9663 ± 0.12
308.15 K, 100 kPa, x2 = 0.7814 | 1.098 ± 0.13
308.15 K, 100 kPa, x2 = 0.8563 | 1.267 ± 0.15
308.15 K, 100 kPa, x2 = 0.9291 | 1.405 ± 0.17
308.15 K, 101 kPa, x1 = 0.062 | 1.369 ± 0.014
308.15 K, 101 kPa, x1 = 0.1398 | 1.182 ± 0.012
308.15 K, 101 kPa, x1 = 0.295 | 0.921 ± 0.01
308.15 K, 101 kPa, x1 = 0.388 | 0.81 ± 0.008
308.15 K, 101 kPa, x1 = 0.4661 | 0.736 ± 0.008
308.15 K, 101 kPa, x1 = 0.5337 | 0.678 ± 0.007
308.15 K, 101 kPa, x1 = 0.6049 | 0.63 ± 0.007
308.15 K, 101 kPa, x1 = 0.7128 | 0.566 ± 0.006
308.15 K, 101 kPa, x1 = 0.806 | 0.541 ± 0.006
308.15 K, 101 kPa, x1 = 0.89 | 0.527 ± 0.006
308.15 K, 101.3 kPa, x1 = 0.1571 | 1.155 ± 0.031
308.15 K, 101.3 kPa, x1 = 0.3573 | 0.834 ± 0.022
308.15 K, 101.3 kPa, x1 = 0.5287 | 0.668 ± 0.018
308.15 K, 101.3 kPa, x1 = 0.7516 | 0.552 ± 0.015
308.15 K, 101.33 kPa, x1 = 0.1571 | 1.155 ± 0.0092
308.15 K, 101.33 kPa, x1 = 0.3573 | 0.834 ± 0.0067
308.15 K, 101.33 kPa, x1 = 0.5287 | 0.668 ± 0.0053
308.15 K, 101.33 kPa, x1 = 0.7516 | 0.552 ± 0.0044
313.15 K, 101 kPa, x1 = 0.062 | 1.225 ± 0.013
313.15 K, 101 kPa, x1 = 0.1398 | 1.061 ± 0.011
313.15 K, 101 kPa, x1 = 0.295 | 0.835 ± 0.009
313.15 K, 101 kPa, x1 = 0.388 | 0.739 ± 0.008
313.15 K, 101 kPa, x1 = 0.4661 | 0.674 ± 0.007
313.15 K, 101 kPa, x1 = 0.5337 | 0.623 ± 0.007
313.15 K, 101 kPa, x1 = 0.6049 | 0.582 ± 0.006
313.15 K, 101 kPa, x1 = 0.7 | 0.5283 ± 0.0079
313.15 K, 101 kPa, x1 = 0.7128 | 0.528 ± 0.006
313.15 K, 101 kPa, x1 = 0.806 | 0.503 ± 0.005
313.15 K, 101 kPa, x1 = 0.89 | 0.493 ± 0.005
318.15 K, 101 kPa, x1 = 0.062 | 1.103 ± 0.011
318.15 K, 101 kPa, x1 = 0.1398 | 0.956 ± 0.01
318.15 K, 101 kPa, x1 = 0.295 | 0.76 ± 0.008
318.15 K, 101 kPa, x1 = 0.388 | 0.676 ± 0.007
318.15 K, 101 kPa, x1 = 0.4661 | 0.617 ± 0.007
318.15 K, 101 kPa, x1 = 0.5337 | 0.572 ± 0.006
318.15 K, 101 kPa, x1 = 0.6049 | 0.539 ± 0.006
318.15 K, 101 kPa, x1 = 0.7128 | 0.493 ± 0.005
318.15 K, 101 kPa, x1 = 0.806 | 0.47 ± 0.005
318.15 K, 101 kPa, x1 = 0.89 | 0.463 ± 0.005
323.15 K, 101.33 kPa, x2 = 0.2 | 0.44 ± 0.0088
